IC50 data for 34 compounds are collected here from US20230234943A1, “TREX1 INHIBITORS AND USES THEREOF” (Tempest Therapeutics, Inc., priority 2020, published 2023).

For the experiment, the target named is T1, Human TREX1 enzyme (amino acids 1-242) (Homo sapiens, UniProt Q9NSU2).
T1 construct: Human TREX1 enzyme (amino acids 1-242)
T1 sequence (Q9NSU2 1-242): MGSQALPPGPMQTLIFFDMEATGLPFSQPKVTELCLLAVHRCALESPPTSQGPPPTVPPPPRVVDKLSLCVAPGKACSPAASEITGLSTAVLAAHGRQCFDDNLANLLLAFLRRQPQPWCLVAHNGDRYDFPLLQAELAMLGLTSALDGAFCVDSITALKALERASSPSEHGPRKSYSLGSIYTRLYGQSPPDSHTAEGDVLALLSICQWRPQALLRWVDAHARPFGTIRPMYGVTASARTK
Kind of experiment: Human TREX1 enzymatic assay with dsDNA native oligonucleotide (Picogreen fluorescence). Type of experiment: biochemical. The following applies: 2 mM dithiothreitol in assay buffer; 50 nM dsDNA oligonucleotide; 30 min preincubation at 25° C.; read-out: TREX1/Human + DTT IC50 AVG. An outline of the steps:
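Remaining dsDNA quantified by Picogreen fluorescence after EDTA quench, with no-enzyme and DMSO wells as controls. Reactions used 50 nM annealed oligonucleotide for 5–15 min at 25 °C, after a 30 min compound–enzyme preincubation (0.8–0.16 nM TREX1; 2% DMSO; pH 7.7 Tris, 5 mM MgCl2).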
For `COc1cc(-c2nc3ccncc3n2C2(C)COC2)c(F)c(O)c1O` [Example 230, 3-fluoro-6-methoxy-4-[3(3-methyloxetan-3-yl)-3H-imidazo[4,5-c]pyridin-2-yl]benzene-1,2-diol], the IC50 fell in the range of 0.1 to 1 µM.
With `COc1cc(-c2nc3cc(-c4ccccn4)ccc3[nH]2)c(C)c(O)c1O` [Example 289, 6-methoxy-3-methyl-4-[5-(pyridin-2-yl)-1H-1,3-benzodiazol-2-yl]benzene-1,2-diol], the IC50 fell in the range of 1 to 10 µM.
As for `COc1cc(-c2nc3cc(N4CCN(C)CC4)ccc3n2C)cc(O)c1O` [Example 35, 3-methoxy-5-(1-methyl-5-(4-methylpiperazin-1-yl)-1H-benzo[d]imidazol-2-yl)benzene-1,2-diol], the figure is more than 100 µM; as for `O=C(O)c1ccc(-c2nc3ccccc3n2C2COC2)c(C(F)(F)F)c1O` [Example 161, 2-hydroxy-4-(1-(oxetan-3-yl)-1H-benzo[d]imidazol-2-yl)-3-(trifluoromethyl)benzoic acid], more than 100 µM.
As for `COc1cc(-c2nc3cc(N4CCN(C5CCCCC5)CC4)ccc3[nH]2)cc(O)c1O` [Example 57, 5-(5-(4-cyclohexylpiperazin-1-yl)-1H-benzo[d]imidazol-2-yl)-3-methoxybenzene-1,2-diol], the figure is more than 100 µM; as for `COc1c(C)c(-c2nc3cc(N4CCC4)ccc3n2C2CCC2)cc(O)c1O` [Example 299, 5-(5-(azetidin-1-yl)-1-cyclobutyl-1H-benzo[d]imidazol-2-yl)-3-methoxy-4-methylbenzene-1,2-diol], 10 to 100 µM.
As for `CNc1ccc2c(c1)nc(-c1cc(OC)c(O)c(O)c1F)n2C1(C)COC1` [Example 316, 3-fluoro-6-methoxy-4-(5-(methylamino)-1-(3-methyloxetan-3-yl)-1H-benzo[d]imidazol-2-yl)benzene-1,2-diol], the figure is 0.1 to 1 µM; as for `COc1cc(-c2nc3cc(N4CCC4)ccc3n2C2COC2)c(F)c(O)c1O` [Example 188, 4-(5-(azetidin-1-yl)-1-(oxetan-3-yl)-1H-benzo[d]imidazol-2-yl)-3-fluoro-6-methoxybenzene-1,2-diol], 1 to 10 µM.
As for `CNc1ccc2nc(-c3cc(OC)c(O)c(O)c3F)n(C3(C)COC3)c2c1` [Example 317, 3-fluoro-6-methoxy-4-(6-(methylamino)-1-(3-methyloxetan-3-yl)-1H-benzo[d]imidazol-2-yl)benzene-1,2-diol], the IC50 fell in the range of 0.1 to 1 µM.
For the compound `COc1cc(-c2nc3ccccc3n2C2COC2)c(C(F)(F)F)c(O)c1O` [Example 130, 6-methoxy-4-(1-(oxetan-3-yl)-1H-benzo[d]imidazol-2-yl)-3-(trifluoromethyl)benzene-1,2-diol], the IC50 was in the range of 10 to 100 µM.
As for `COc1cc(-c2nc3ccc(N4CCOCC4)cc3n2C2CCOC2)cc(O)c1O` (stereo not shown) [Example 83, 3-methoxy-5-(6-morpholino-1-(tetrahydrofuran-3-yl)-1H-benzo[d]imidazol-2-yl)benzene-1,2-diol], the figure is 10 to 100 µM; as for `COc1cc(-c2nc3ccc(N4CCN(C(=O)c5ccccc5)CC4)cc3n2C2CCOC2)cc(O)c1O` (stereo not shown) [Example 106, (4-(2-(3,4-dihydroxy-5-methoxyphenyl)-1-(tetrahydrofuran-3-yl)-1H-benzo[d]imidazol-6-yl)piperazin-1-yl)(phenyl)methanone], 1 to 10 µM.
Then `COc1cc(-c2nc3ccncc3[nH]2)c(-c2cccnc2)c(O)c1O` [Example 79, 4-(3H-imidazo[4,5-c]pyridin-2-yl)-6-methoxy-3-(pyridin-3-yl)benzene-1,2-diol], with more than 100 µM.
As to `COc1cc(-c2nc3cc(N4CCN(C)CC4)ccc3[nH]2)cc(O)c1O` [Example 24, 3-methoxy-5-(5-(4-methylpiperazin-1-yl)-1H-benzo[d]imidazol-2-yl)benzene-1,2-diol], the IC50 is more than 100 µM.
Turning to `COc1cc(-c2nc3cc(N4CC(C)C4)ccc3[nH]2)cc(O)c1O` [Example 143, 3-methoxy-5-(5-(3-methylazetidin-1-yl)-1H-benzo[d]imidazol-2-yl)benzene-1,2-diol], the IC50 is more than 100 µM.
Regarding `COc1cc(-c2nc3cc(C4CCNCC4)ccc3[nH]2)cc(O)c1O` [Example 58, 3-methoxy-5-(5-(piperidin-4-yl)-1H-benzo[d]imidazol-2-yl)benzene-1,2-diol], the IC50 is more than 100 µM.
For `COc1cc(-c2nc3cc(N4CCN(C(=O)c5ccc(C)cc5C)CC4)ccc3[nH]2)cc(O)c1O` [Example 100, (4-(2-(3,4-dihydroxy-5-methoxyphenyl)-1H-benzo[d]imidazol-5-yl)piperazin-1-yl)(2,4-dimethylphenyl)methanone], the IC50 was more than 100 µM.
Take `COc1ccc2c(c1)CCN(c1ccc3[nH]c(-c4cc(O)c(O)c(OC)c4)nc3c1)C2` [Example 67, 3-methoxy-5-(5-(6-methoxy-3,4-dihydroisoquinolin-2(1H)-yl)-1H-benzo[d]imidazol-2-yl)benzene-1,2-diol]: the IC50 was more than 100 µM.
As for `CNS(=O)(=O)c1ccc2nc(-c3cc(OC)c(O)c(O)c3F)n(C3(C)COC3)c2c1` [Example 325, 2-(2-fluoro-3,4-dihydroxy-5-methoxyphenyl)-N-methyl-1-(3-methyloxetan-3-yl)-1H-benzo[d]imidazole-6-sulfonamide], the IC50 was in the range of 10 to 100 µM.
Turning to `COc1cc(-c2nc3cc(N4CCC4)ccc3[nH]2)c(C2CC2)c(O)c1O` [Example 242, 4-(5-(azetidin-1-yl)-1H-benzo[d]imidazol-2-yl)-3-cyclopropyl-6-methoxybenzene-1,2-diol], the IC50 is more than 100 µM.
Take `COc1cc(-c2nc3ccc(-c4ccn[nH]4)cc3n2C2(C)COC2)c(F)c(O)c1O` [Example 295, 3-fluoro-6-methoxy-4-(1-(3-methyloxetan-3-yl)-6-(1H-pyrazol-5-yl)-1H-benzo[d]imidazol-2-yl)benzene-1,2-diol]: the IC50 was not above 0.1 µM.
`COc1cc(-c2nc3ncccc3n2C2COC2)cc(O)c1O` [Example 36, 3-methoxy-5-(1-(oxetan-3-yl)-1H-imidazo[4,5-b]pyridin-2-yl)benzene-1,2-diol]: the IC50 is more than 100 µM.
On to `COc1cc(-c2nc3cc(N4CCOCC4=O)ccc3n2C2(C)COC2)c(F)c(O)c1O` [Example 275, 4-(2-(2-fluoro-3,4-dihydroxy-5-methoxyphenyl)-1-(3-methyloxetan-3-yl)-1H-benzo[d]imidazol-5-yl)morpholin-3-one], for which the IC50 was 0.1 to 1 µM.
Then `CCNC(=O)c1ccc2nc(-c3cc(OC)c(O)c(O)c3F)n(C34CC(C3)C4)c2c1` [Example 264, 1-(bicyclo[1.1.1]pentan-1-yl)-N-ethyl-2-(2-fluoro-3,4-dihydroxy-5-methoxyphenyl)-1H-benzo[d]imidazole-6-carboxamide], with not above 0.1 µM.
Then `COc1cc(-c2nc3ccc(C(=O)NC4CCN(C)CC4)cc3n2C2(C)COC2)c(F)c(O)c1O` [Example 260, 2-(2-fluoro-3,4-dihydroxy-5-methoxyphenyl)-1-(3-methyloxetan-3-yl)-N-(1-methylpiperidin-4-yl)-1H-1,3-benzodiazole-6-carboxamide], with 0.1 to 1 µM; and `O=C(O)c1cc(-c2nc3cc(N4CCOCC4)ccc3[nH]2)ccc1O` [Example 140, 2-hydroxy-5-(5-morpholino-1H-benzo[d]imidazol-2-yl)benzoic acid], with 10 to 100 µM; and `COc1cc(-c2nc3cc(O)ccc3[nH]2)c(C)c(O)c1O` [Example 183, 4-(5-hydroxy-1H-1,3-benzodiazol-2-yl)-6-methoxy-3-methylbenzene-1,2-diol], with 10 to 100 µM.
Then `O=C(O)c1ccc(-c2nc3cc(N4CCC4)ccc3[nH]2)cc1O` [Example 114, 4-(5-(azetidin-1-yl)-1H-benzo[d]imidazol-2-yl)-2-hydroxybenzoic acid], with 10 to 100 µM; and `COc1cc(-c2nc3ccc(CO)cc3n2C2(C)COC2)c(F)c(O)c1O` [Example 281, 3-fluoro-4-(6-(hydroxymethyl)-1-(3-methyloxetan-3-yl)-1H-benzo[d]imidazol-2-yl)-6-methoxybenzene-1,2-diol], with 0.1 to 1 µM.
In the case of `COc1cc(-c2nc3cnncc3[nH]2)cc(O)c1O` [Example 14, 5-(1H-imidazo[4,5-d]pyridazin-2-yl)-3-methoxybenzene-1,2-diol], the IC50 was more than 100 µM.
For the compound `O=C(O)c1cc(F)c(-c2nc3cc(N4CCC4)ccc3[nH]2)cc1O` [Example 150, 4-(5-(azetidin-1-yl)-1H-benzo[d]imidazol-2-yl)-5-fluoro-2-hydroxybenzoic acid], the IC50 was in the range of 1 to 10 µM.
Then `COc1cc(-c2nc3ccc(-c4ccnn4C)cc3n2C2(C)COC2)c(F)c(O)c1O` [Example 266, 3-fluoro-6-methoxy-4-(6-(1-methyl-1H-pyrazol-5-yl)-1-(3-methyloxetan-3-yl)-1H-benzo[d]imidazol-2-yl)benzene-1,2-diol], with 1 to 10 µM.
As for `COc1cc(-c2nc3ccc(C(=O)NC4CS(=O)(=O)C4)cc3n2C2(C)COC2)c(F)c(O)c1O` [Example 307, N-(1,1-dioxidothietan-3-yl)-2-(2-fluoro-3,4-dihydroxy-5-methoxyphenyl)-1-(3-methyloxetan-3-yl)-1H-benzo[d]imidazole-6-carboxamide], the IC50 was not above 0.1 µM.
As for `COc1cc(-c2nc3ccccc3n2C2COC2)c(F)c(O)c1O` [Example 167, 3-fluoro-6-methoxy-4-(1-(oxetan-3-yl)-1H-benzo[d]imidazol-2-yl)benzene-1,2-diol], the figure is 1 to 10 µM.
